Source: the supplement of paper PMC10307832

What was measured:
Assay in all cases: relative viability (nuclei count vs DMSO), 5 days (fraction); higher = more cells survive
[1] = compound: CC1CC(=O)N(C2=CN=C(N=C2N1C3CCCC3)NC4=C(C=C(C=C4)C(=O)NC5CCN(CC5)C)OC)C [NPK76-II-72-1] + CC(=O)c1c(C)c2cnc(Nc3ccc(N4CCNCC4)cn3)nc2n(C2CCCC2)c1=O [Palbociclib] (partner 0.5 µM)
Outline: (§1)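 A single step with final 0.05% Triton X-100, 1% formaldehyde and 1 ug/ml Hoechst fixed the cells and stained nuclei 5 days after treatment. Lung cancer cell lines in 1536-well plates had been treated by pin tool the day after seeding with one drug alone or a fixed anchor-drug dose plus five library-drug doses (not always all listed) in √10 steps, and nuclei were counted on 4× images. Relative viability is the ratio of nuclei in treated wells to nuclei in vehicle wells, taken as the median of duplicate plates.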

[2] = compound: CC1CC(=O)N(C2=CN=C(N=C2N1C3CCCC3)NC4=C(C=C(C=C4)C(=O)NC5CCN(CC5)C)OC)C [NPK76-II-72-1] + CC1(C)CCC(c2ccc(Cl)cc2)=C(CN2CCN(c3ccc(C(=O)NS(=O)(=O)c4ccc(N[C@H](CCN5CCOCC5)CSc5ccccc5)c(S(=O)(=O)C(F)(F)F)c4)cc3)CC2)C1 [Navitoclax] (partner 0.5 µM)
Outline: as §1

BI-2536 + Crizotinib = compound: CC[C@@H]1C(=O)N(C)c2cnc(Nc3ccc(C(=O)NC4CCN(C)CC4)cc3OC)nc2N1C1CCCC1 [BI-2536] + C[C@@H](Oc1cc(-c2cnn(C3CCNCC3)c2)cnc1N)c1c(Cl)ccc(F)c1Cl [Crizotinib] (partner 1 µM)
Outline: as §1

BI-2536 + Linsitinib = compound: CC[C@@H]1C(=O)N(C)c2cnc(Nc3ccc(C(=O)NC4CCN(C)CC4)cc3OC)nc2N1C1CCCC1 [BI-2536] + C[C@]1(O)C[C@@H](c2nc(-c3ccc4ccc(-c5ccccc5)nc4c3)c3c(N)nccn32)C1 [Linsitinib] (partner 1 µM)
Outline: as §1

NCI-H647
relative viability ([1]; first compound 0.01 µM): 0.31
relative viability ([1]; first compound 0.03162 µM): 0.351
relative viability ([1]; first compound 0.1 µM): 0.424
relative viability ([1]; first compound 0.3162 µM): 0.362
relative viability ([1]; first compound 1 µM): 0.506
relative viability ([2]; first compound 0.01 µM): 0.986
relative viability ([2]; first compound 0.03162 µM): 1.05
relative viability ([2]; first compound 0.1 µM): 1.23
relative viability ([2]; first compound 0.3162 µM): 1.11
relative viability ([2]; first compound 1 µM): 1.2
relative viability (BI-2536 + Crizotinib; first compound 0.01 µM): 1.15
relative viability (BI-2536 + Crizotinib; first compound 0.03162 µM): 0.418
relative viability (BI-2536 + Crizotinib; first compound 0.1 µM): 0.425
relative viability (BI-2536 + Crizotinib; first compound 0.3162 µM): 0.113
relative viability (BI-2536 + Crizotinib; first compound 1 µM): 0.115
relative viability (BI-2536 + Linsitinib; first compound 0.01 µM): 1.15
relative viability (BI-2536 + Linsitinib; first compound 0.03162 µM): 1.15
relative viability (BI-2536 + Linsitinib; first compound 0.1 µM): 1.11
relative viability (BI-2536 + Linsitinib; first compound 0.3162 µM): 0.108
relative viability (BI-2536 + Linsitinib; first compound 1 µM): 0.0822

NCI-H727
relative viability ([1]; first compound 0.01 µM): 0.705
relative viability ([1]; first compound 0.03162 µM): 0.671
relative viability ([1]; first compound 0.1 µM): 0.594
relative viability ([1]; first compound 0.3162 µM): 0.621
relative viability ([1]; first compound 1 µM): 0.712
relative viability ([2]; first compound 0.01 µM): 0.372
relative viability ([2]; first compound 0.03162 µM): 0.397
relative viability ([2]; first compound 0.1 µM): 0.572
relative viability ([2]; first compound 0.3162 µM): 0.494
relative viability ([2]; first compound 1 µM): 0.652
relative viability (BI-2536 + Crizotinib; first compound 0.01 µM): 0.939
relative viability (BI-2536 + Crizotinib; first compound 0.03162 µM): 0.7
relative viability (BI-2536 + Crizotinib; first compound 0.1 µM): 0.364
relative viability (BI-2536 + Crizotinib; first compound 0.3162 µM): 0.331
relative viability (BI-2536 + Crizotinib; first compound 1 µM): 0.295
relative viability (BI-2536 + Linsitinib; first compound 0.01 µM): 0.416
relative viability (BI-2536 + Linsitinib; first compound 0.03162 µM): 0.268
relative viability (BI-2536 + Linsitinib; first compound 0.1 µM): 0.281
relative viability (BI-2536 + Linsitinib; first compound 0.3162 µM): 0.282
relative viability (BI-2536 + Linsitinib; first compound 1 µM): 0.211

NCI-H838
relative viability ([1]; first compound 0.01 µM): 0.209
relative viability ([1]; first compound 0.03162 µM): 0.2
relative viability ([1]; first compound 0.1 µM): 0.217
relative viability ([1]; first compound 0.3162 µM): 0.228
relative viability ([1]; first compound 1 µM): 0.228
relative viability ([2]; first compound 0.01 µM): 1.11
relative viability ([2]; first compound 0.03162 µM): 1.19
relative viability ([2]; first compound 0.1 µM): 1.19
relative viability ([2]; first compound 0.3162 µM): 1.09
relative viability ([2]; first compound 1 µM): 1.11
relative viability (BI-2536 + Crizotinib; first compound 0.01 µM): 0.886
relative viability (BI-2536 + Crizotinib; first compound 0.03162 µM): 0.711
relative viability (BI-2536 + Crizotinib; first compound 0.1 µM): 0.232
relative viability (BI-2536 + Crizotinib; first compound 0.3162 µM): 0.156
relative viability (BI-2536 + Crizotinib; first compound 1 µM): 0.114
relative viability (BI-2536 + Linsitinib; first compound 0.01 µM): 1.05
relative viability (BI-2536 + Linsitinib; first compound 0.03162 µM): 0.961
relative viability (BI-2536 + Linsitinib; first compound 0.1 µM): 0.96
relative viability (BI-2536 + Linsitinib; first compound 0.3162 µM): 0.136
relative viability (BI-2536 + Linsitinib; first compound 1 µM): 0.126

NCI-H1355
relative viability ([1]; first compound 0.01 µM): 0.377
relative viability ([1]; first compound 0.03162 µM): 0.427
relative viability ([1]; first compound 0.1 µM): 0.397
relative viability ([1]; first compound 0.3162 µM): 0.383
relative viability ([1]; first compound 1 µM): 0.439
relative viability ([2]; first compound 0.01 µM): 0.881
relative viability ([2]; first compound 0.03162 µM): 0.959
relative viability ([2]; first compound 0.1 µM): 0.928
relative viability ([2]; first compound 0.3162 µM): 0.871
relative viability ([2]; first compound 1 µM): 0.993
relative viability (BI-2536 + Crizotinib; first compound 0.01 µM): 1.06
relative viability (BI-2536 + Crizotinib; first compound 0.03162 µM): 1.1
relative viability (BI-2536 + Crizotinib; first compound 0.1 µM): 0.796
relative viability (BI-2536 + Crizotinib; first compound 0.3162 µM): 0.198
relative viability (BI-2536 + Crizotinib; first compound 1 µM): 0.184
relative viability (BI-2536 + Linsitinib; first compound 0.01 µM): 0.877
relative viability (BI-2536 + Linsitinib; first compound 0.03162 µM): 0.889
relative viability (BI-2536 + Linsitinib; first compound 0.1 µM): 0.856
relative viability (BI-2536 + Linsitinib; first compound 0.3162 µM): 0.227
relative viability (BI-2536 + Linsitinib; first compound 1 µM): 0.178

NCI-H1437
relative viability ([1]; first compound 0.01 µM): 0.31
relative viability ([1]; first compound 0.03162 µM): 0.311
relative viability ([1]; first compound 0.1 µM): 0.292
relative viability ([1]; first compound 0.3162 µM): 0.272
relative viability ([1]; first compound 1 µM): 0.3
relative viability ([2]; first compound 0.01 µM): 1.17
relative viability ([2]; first compound 0.03162 µM): 1.11
relative viability ([2]; first compound 0.1 µM): 0.967
relative viability ([2]; first compound 0.3162 µM): 0.978
relative viability ([2]; first compound 1 µM): 1.13
relative viability (BI-2536 + Crizotinib; first compound 0.01 µM): 0.812
relative viability (BI-2536 + Crizotinib; first compound 0.03162 µM): 0.593
relative viability (BI-2536 + Crizotinib; first compound 0.1 µM): 0.418
relative viability (BI-2536 + Crizotinib; first compound 0.3162 µM): 0.117
relative viability (BI-2536 + Crizotinib; first compound 1 µM): 0.116
relative viability (BI-2536 + Linsitinib; first compound 0.01 µM): 1.03
relative viability (BI-2536 + Linsitinib; first compound 0.03162 µM): 0.901
relative viability (BI-2536 + Linsitinib; first compound 0.1 µM): 0.941
relative viability (BI-2536 + Linsitinib; first compound 0.3162 µM): 0.123
relative viability (BI-2536 + Linsitinib; first compound 1 µM): 0.0942

NCI-H1651
relative viability ([1]; first compound 0.01 µM): 0.512
relative viability ([1]; first compound 0.03162 µM): 0.535
relative viability ([1]; first compound 0.1 µM): 0.483
relative viability ([1]; first compound 0.3162 µM): 0.48
relative viability ([1]; first compound 1 µM): 0.558
relative viability ([2]; first compound 0.01 µM): 0.915
relative viability ([2]; first compound 0.03162 µM): 1.04
relative viability ([2]; first compound 0.1 µM): 1.11
relative viability ([2]; first compound 0.3162 µM): 0.953
relative viability ([2]; first compound 1 µM): 1.1
relative viability (BI-2536 + Crizotinib; first compound 0.01 µM): 0.85
relative viability (BI-2536 + Crizotinib; first compound 0.03162 µM): 0.889
relative viability (BI-2536 + Crizotinib; first compound 0.1 µM): 0.81
relative viability (BI-2536 + Crizotinib; first compound 0.3162 µM): 0.358
relative viability (BI-2536 + Crizotinib; first compound 1 µM): 0.101
relative viability (BI-2536 + Linsitinib; first compound 0.01 µM): 0.976
relative viability (BI-2536 + Linsitinib; first compound 0.03162 µM): 1.01
relative viability (BI-2536 + Linsitinib; first compound 0.1 µM): 0.878
relative viability (BI-2536 + Linsitinib; first compound 0.3162 µM): 0.119
relative viability (BI-2536 + Linsitinib; first compound 1 µM): 0.0863

NCI-H1666
relative viability ([1]; first compound 0.01 µM): 0.64
relative viability ([1]; first compound 0.03162 µM): 0.62
relative viability ([1]; first compound 0.1 µM): 0.652
relative viability ([1]; first compound 0.3162 µM): 0.6
relative viability ([1]; first compound 1 µM): 0.67
relative viability ([2]; first compound 0.01 µM): 0.917
relative viability ([2]; first compound 0.03162 µM): 0.858
relative viability ([2]; first compound 0.1 µM): 0.961
relative viability ([2]; first compound 0.3162 µM): 0.722
relative viability ([2]; first compound 1 µM): 1.06
relative viability (BI-2536 + Crizotinib; first compound 0.01 µM): 0.924
relative viability (BI-2536 + Crizotinib; first compound 0.03162 µM): 0.899
relative viability (BI-2536 + Crizotinib; first compound 0.1 µM): 0.503
relative viability (BI-2536 + Crizotinib; first compound 0.3162 µM): 0.306
relative viability (BI-2536 + Crizotinib; first compound 1 µM): 0.321
relative viability (BI-2536 + Linsitinib; first compound 0.01 µM): 0.86
relative viability (BI-2536 + Linsitinib; first compound 0.03162 µM): 0.736
relative viability (BI-2536 + Linsitinib; first compound 0.1 µM): 0.762
relative viability (BI-2536 + Linsitinib; first compound 0.3162 µM): 0.224
relative viability (BI-2536 + Linsitinib; first compound 1 µM): 0.276
